Test results taken from ChEMBL document CHEMBL1201862, “PubChem BioAssay data set” (2004).
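Where inhibition never reached the appropriate level, the endpoint shown equals the highest concentration tested. Otherwise, values were interpolated linearly from a five-concentration, 48-hour dose response in 96-well plates. Here, GI50 denotes the concentration required for 50% inhibition of growth.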 Activity calls are given as the source filed them. No stated cut-off is given here; in the data, active = GI50 up to about 1.1 µM and inactive = higher.

Columns and labels:
Assay in all cases: inhibition of tumour cell growth, NCI panel, 48 h
A549 = tested on: A549
SNB-75 = tested on: SNB-75
SNB-19 = tested on: SNB-19
SF-268 = tested on: SF-268
ACHN = tested on: ACHN
U-251 = tested on: U-251
NCI-H522 = tested on: NCI-H522
HCT-15 = tested on: HCT-15
CCRF-CEM = tested on: CCRF-CEM
M14 = tested on: M14
SW-620 = tested on: SW-620
OVCAR-8 = tested on: OVCAR-8
SR = tested on: SR
HT-29 = tested on: HT-29
UO-31 = tested on: UO-31
A498 = tested on: A498
MCF7 = tested on: MCF7
MDA-MB-435 = tested on: MDA-MB-435
Hs-578T = tested on: Hs-578T

SMILES	GI50 (A549)	GI50 (SNB-75)	GI50 (SNB-19)	GI50 (SF-268)	GI50 (ACHN)	GI50 (U-251)	GI50 (NCI-H522)	GI50 (HCT-15) [µM]	GI50 (CCRF-CEM)	GI50 (M14)	GI50 (SW-620)	GI50 (OVCAR-8)	GI50 (SR)	GI50 (HT-29)	GI50 (UO-31)	GI50 (A498)	GI50 (MCF7)	GI50 (MDA-MB-435)	GI50 (Hs-578T)
O=C(Nc1cc(Cl)c(Cl)cc1Cl)C(=O)C(C(=O)c1ccccc1)C1OC(=O)c2ccccc21 (stereo not given)	> 100 µM (inactive)	17.9 µM (inactive)	> 100 µM (inactive)	> 100 µM (inactive)	> 100 µM (inactive)	> 100 µM (inactive)	> 100 µM (inactive)	> 100	> 100 µM (inactive)	> 100 µM (inactive)	> 100 µM (inactive)	> 100 µM (inactive)	97.7 µM (inactive)	> 100 µM (inactive)	> 100 µM (inactive)	> 100 µM (inactive)	–	–	–
CC(=O)OC1CC2C(C)(C)C(=O)C=C[C@]2(C)C2CCC3(C)C(=CCC3[C@H](CO)C[C@H](O)C(=O)C(C)(C)O)[C@]12C (stereo not given in full)	24.2 µM (inactive)	24.3 µM (inactive)	31.7 µM (inactive)	25.9 µM (inactive)	17.3 µM (inactive)	16.7 µM (inactive)	23.6 µM (inactive)	17.8	17.9 µM (inactive)	21.7 µM (inactive)	21.1 µM (inactive)	17.3 µM (inactive)	25.4 µM (inactive)	13.8 µM (inactive)	23.7 µM (inactive)	16.4 µM (inactive)	–	–	–
Cc1cc(C)nc(NS(=O)(=O)c2ccc(Nc3c4ccccc4nc4c(C(=O)Nc5ccc(S(=O)(=O)Nc6cc(C)on6)cc5)ccc(Cl)c34)cc2)n1	–	31.7 µM (inactive)	22.4 µM (inactive)	27.2 µM (inactive)	36.2 µM (inactive)	15.9 µM (inactive)	21.5 µM (inactive)	28.9	21.8 µM (inactive)	20.1 µM (inactive)	–	26.4 µM (inactive)	21.1 µM (inactive)	23.4 µM (inactive)	20.8 µM (inactive)	17.2 µM (inactive)	–	–	–
O=C(O)CC(NC(=O)C(F)(F)F)C(=O)NC1Cc2ccccc2OC1=O (stereo not given)	> 100 µM (inactive)	> 100 µM (inactive)	> 100 µM (inactive)	> 100 µM (inactive)	> 100 µM (inactive)	> 100 µM (inactive)	> 100 µM (inactive)	> 100	–	> 100 µM (inactive)	> 100 µM (inactive)	> 100 µM (inactive)	> 100 µM (inactive)	> 100 µM (inactive)	> 100 µM (inactive)	–	> 100 µM (inactive)	> 100 µM (inactive)	> 100 µM (inactive)
N#CC1(N2CCCC2)CCC2(CC1)OCCO2	> 100 µM (inactive)	> 100 µM (inactive)	> 100 µM (inactive)	> 100 µM (inactive)	> 100 µM (inactive)	> 100 µM (inactive)	> 100 µM (inactive)	> 100	> 100 µM (inactive)	> 100 µM (inactive)	> 100 µM (inactive)	> 100 µM (inactive)	> 100 µM (inactive)	> 100 µM (inactive)	> 100 µM (inactive)	> 100 µM (inactive)	–	–	–
O=C1C=C2CC[C@H]3[C@@H]4CC[C@H](OC(=O)c5cccc6cc7ccccc7nc56)[C@H]4CC[C@@H]3[C@H]2CC1	> 100 µM (inactive)	> 100 µM (inactive)	> 100 µM (inactive)	> 100 µM (inactive)	> 100 µM (inactive)	99.3 µM (inactive)	25.5 µM (inactive)	> 100	24.7 µM (inactive)	> 100 µM (inactive)	> 100 µM (inactive)	> 100 µM (inactive)	–	> 100 µM (inactive)	79.6 µM (inactive)	> 100 µM (inactive)	> 100 µM (inactive)	> 100 µM (inactive)	> 100 µM (inactive)
COc1ccc(C(=O)C=C2NCCN2)cc1	> 100 µM (inactive)	> 100 µM (inactive)	> 100 µM (inactive)	> 100 µM (inactive)	> 100 µM (inactive)	> 100 µM (inactive)	> 100 µM (inactive)	–	> 100 µM (inactive)	> 100 µM (inactive)	> 100 µM (inactive)	> 100 µM (inactive)	> 100 µM (inactive)	> 100 µM (inactive)	> 100 µM (inactive)	> 100 µM (inactive)	–	–	–
CC(=O)OCC1OC(OC2CC3C(C)(C)C(O)CC[C@]3(C)C3CCC45CC4(CC[C@H]5C(C)CC(O)C4OC4(C)C)[C@]23C)C(O)C(O)C1O (stereo not given in full)	10.6 µM (inactive)	7.46 µM (inactive)	8 µM (inactive)	6.38 µM (inactive)	8.63 µM (inactive)	3.89 µM (inactive)	4.89 µM (inactive)	8.45	1.56 µM (inactive)	8.04 µM (inactive)	7.98 µM (inactive)	6.89 µM (inactive)	1.47 µM (inactive)	8.38 µM (inactive)	8.51 µM (inactive)	34.5 µM (inactive)	–	–	–
O=C1CCCCC12CCC/C2=N\O (stereo not given)	> 100 µM (inactive)	> 100 µM (inactive)	> 100 µM (inactive)	> 100 µM (inactive)	> 100 µM (inactive)	> 100 µM (inactive)	> 100 µM (inactive)	> 100	> 100 µM (inactive)	> 100 µM (inactive)	> 100 µM (inactive)	> 100 µM (inactive)	> 100 µM (inactive)	–	> 100 µM (inactive)	> 100 µM (inactive)	–	–	–
COc1ccc(Nc2nc3cc(C(F)(F)F)ccc3nc2-c2ccccc2)cc1OC	25.9 µM (inactive)	28.4 µM (inactive)	–	38 µM (inactive)	30.6 µM (inactive)	30.9 µM (inactive)	30 µM (inactive)	64.4	82.6 µM (inactive)	38.6 µM (inactive)	35.5 µM (inactive)	25.8 µM (inactive)	75.9 µM (inactive)	46.7 µM (inactive)	11.8 µM (inactive)	52.1 µM (inactive)	–	–	–
C=CCOC(C)n1c(C)c(Br)c(=O)[nH]c1=O (stereo not given)	> 100 µM (inactive)	> 100 µM (inactive)	> 100 µM (inactive)	> 100 µM (inactive)	> 100 µM (inactive)	> 100 µM (inactive)	> 100 µM (inactive)	> 100	> 100 µM (inactive)	–	> 100 µM (inactive)	> 100 µM (inactive)	> 100 µM (inactive)	> 100 µM (inactive)	> 100 µM (inactive)	> 100 µM (inactive)	–	–	–
CC(C)(C)OC(=O)C1/C(=C/CBr)CN1C(=O)OC(C)(C)C (stereo not given)	18.9 µM (inactive)	–	17.6 µM (inactive)	4.85 µM (inactive)	16.7 µM (inactive)	–	–	8.67	2.64 µM (inactive)	16.6 µM (inactive)	5 µM (inactive)	16.9 µM (inactive)	–	23.7 µM (inactive)	18.8 µM (inactive)	16.4 µM (inactive)	3.76 µM (inactive)	12.9 µM (inactive)	22 µM (inactive)
COC1=CC(c2ccc(Br)[nH]2)=N/C1=C/NCC(C)C	1.46 µM (inactive)	5.18 µM (inactive)	3.6 µM (inactive)	2.26 µM (inactive)	1.21 µM (inactive)	1.51 µM (inactive)	1.49 µM (inactive)	1.3	0.581 µM (active)	1.98 µM (inactive)	–	2.01 µM (inactive)	–	1.24 µM (inactive)	2.06 µM (inactive)	2.23 µM (inactive)	1.09 µM (active)	1.93 µM (inactive)	2.29 µM (inactive)
Clc1ccc(C2SCc3nc4ccccc4n32)c(Cl)c1 (stereo not given)	14.5 µM (inactive)	19.3 µM (inactive)	18 µM (inactive)	16.5 µM (inactive)	15 µM (inactive)	17.9 µM (inactive)	15.7 µM (inactive)	15.6	12.6 µM (inactive)	14.4 µM (inactive)	9.16 µM (inactive)	16.9 µM (inactive)	14.7 µM (inactive)	16 µM (inactive)	12.1 µM (inactive)	15 µM (inactive)	–	–	–
CN(C)/N=N/c1c[nH]nc1C(N)=O	> 100 µM (inactive)	> 100 µM (inactive)	> 100 µM (inactive)	> 100 µM (inactive)	76.7 µM (inactive)	> 100 µM (inactive)	42.9 µM (inactive)	64.1	> 100 µM (inactive)	> 100 µM (inactive)	> 100 µM (inactive)	> 100 µM (inactive)	31.3 µM (inactive)	> 100 µM (inactive)	–	> 100 µM (inactive)	–	–	–
CCOC(=O)C(Cc1ccccc1)NC(=O)c1nc[nH]c1/N=N/N(C)C (stereo not given)	> 100 µM (inactive)	> 100 µM (inactive)	> 100 µM (inactive)	> 100 µM (inactive)	> 100 µM (inactive)	> 100 µM (inactive)	> 100 µM (inactive)	> 100	> 100 µM (inactive)	> 100 µM (inactive)	> 100 µM (inactive)	> 100 µM (inactive)	> 100 µM (inactive)	> 100 µM (inactive)	> 100 µM (inactive)	> 100 µM (inactive)	–	–	–
CC(C)(C)n1c(=O)n2n(c1=O)Cc1cccc3cccc(c13)C2	26.7 µM (inactive)	0.834 µM (active)	25.6 µM (inactive)	14.5 µM (inactive)	20.6 µM (inactive)	15.3 µM (inactive)	2.99 µM (inactive)	18.5	4.31 µM (inactive)	18.4 µM (inactive)	17 µM (inactive)	17.8 µM (inactive)	6.7 µM (inactive)	16.7 µM (inactive)	22.1 µM (inactive)	–	22.8 µM (inactive)	23.7 µM (inactive)	12.2 µM (inactive)
